Series [1] in a line: ASSAY (III) ThT fibrillation assay for physical stability. Type of series: physicochemical. The method in brief: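 Formulations with 1 μM ThT, pH adjusted as required, incubated at 37 °C with 960 rpm orbital shaking; fluorescence (ex 444/em 485 nm) read every 20 min. Fibrillation reported as mean ThT fluorescence ± SD of 4–8 replicates at time points; polypeptide concentration measured by reverse-phase HPLC before and after, post-centrifugation.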

Series [2] is described as follows: ASSAY (IV) determination of solubility. Type of series: physicochemical. The method in brief:
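Dissolve polypeptide in water ([…] stock); combine 1:1 with each 100 mM buffer (glycylglycine pH 3.0/4.0/5.0; bistrispropane pH 6.0/6.5/7.0/7.5/8.0); hold 18 hours at room temperature; centrifuge; quantify polypeptide by UPLC.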

Series [3] concerns the target T1, rat amylin receptor (rat calcitonin receptor + rat RAMP 3) (Rattus norvegicus, UniProt P32214+Q9JJ73).
T1 construct: expressed in transfected cells; host or cells: BHK tk'ts 13 (transient, FuGENE 6), membranes
T1 sequence (P32214 25-479 isoform P32214-2 limits assumed): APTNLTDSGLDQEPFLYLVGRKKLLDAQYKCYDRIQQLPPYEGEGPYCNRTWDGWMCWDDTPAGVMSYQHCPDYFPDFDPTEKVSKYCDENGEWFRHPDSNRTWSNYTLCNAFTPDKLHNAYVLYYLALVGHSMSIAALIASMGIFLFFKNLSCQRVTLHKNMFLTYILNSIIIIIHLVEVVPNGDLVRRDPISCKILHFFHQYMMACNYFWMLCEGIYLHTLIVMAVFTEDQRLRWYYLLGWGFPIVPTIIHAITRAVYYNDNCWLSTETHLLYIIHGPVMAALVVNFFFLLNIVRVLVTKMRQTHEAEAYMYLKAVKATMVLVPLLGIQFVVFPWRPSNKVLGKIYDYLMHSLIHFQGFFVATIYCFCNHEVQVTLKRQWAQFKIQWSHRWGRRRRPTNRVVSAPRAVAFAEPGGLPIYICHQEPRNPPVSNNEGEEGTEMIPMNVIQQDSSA
T1 sequence (Q9JJ73 23-147 partner): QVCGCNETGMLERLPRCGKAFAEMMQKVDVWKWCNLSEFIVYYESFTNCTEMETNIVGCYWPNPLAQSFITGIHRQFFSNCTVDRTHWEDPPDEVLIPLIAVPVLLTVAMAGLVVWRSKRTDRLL
The series is described as follows: ASSAY (VI) binding to the rat amylin receptor. The settings on record: for IC50: binding to rat amylin receptor, read-out: rAmylin-R bind IC50. The method in brief:
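This assay measured binding to the rat amylin receptor. BHK tk′ts 13 cells were transiently transfected with the rat calcitonin receptor using FuGENE® 6 (Roche), following the manufacturer's recommendations. About 48 hours after transfection, the cells were harvested and membranes were prepared from them for the binding determination.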

Where [4] appears, read: bistrispropane buffer, pH 6.5, read-out: Solubility pH 6.5 Concentration.
[5] abbreviates: bistrispropane buffer, pH 7.5, read-out: Solubility pH 7.5 Concentration.
Where [6] appears, read: bistrispropane buffer, pH 6.0, read-out: Solubility pH 6.0 Concentration.
The mark [7] stands for this setting: bistrispropane buffer, pH 7.0, read-out: Solubility pH 7.0 Concentration.
The mark [8] stands for this setting: bistrispropane buffer, pH 8.0, read-out: Solubility pH 8.0 Concentration.
The mark [9] stands for this setting: glycylglycine buffer, pH 3.0, read-out: Solubility pH 3.0 Concentration.
[10] abbreviates: glycylglycine buffer, pH 4.0, read-out: Solubility pH 4.0 Concentration.
[11] abbreviates: glycylglycine buffer, pH 5.0, read-out: Solubility pH 5.0 Concentration.
Where [12] appears, read: Table 7, rat binding selectivity, rCTR IC50 / rAmylin-R IC50.
Where [13] appears, read: Table 7a (preferred compounds), rat binding selectivity, rCTR IC50 / rAmylin-R IC50.
Where [14] appears, read: ratio of rCTR bind IC50 to rAmylin-R bind IC50.

Like-named read-outs stand apart in the source and are kept apart here. Numbered stars: 1 amine (or outer) side, 2 acyl side, 3 side chain; on linkers, the order of the positions; unused ones are H or OH. Bridge positions count the residues as written; N and C are the ends. Peptide text beside a SMILES is read from it. * marks the point of attachment. C20 diacid = O=C(O)CCCCCCCCCCCCCCCCCCC(=O)*; γGlu = O=C(O)[C@H](CCC(=O)[*:2])N[*:1] A value given as a limit tells only on which side of the number the result lay.

As for `CC[C@H](C)[C@H](NC(=O)[C@H](C)NC(=O)CNC(=O)[C@H](Cc1ccccc1)NC(=O)[C@H](CC(N)=O)NC(=O)[C@@H]1CCCN1C(=O)[C@H](CO)NC(=O)[C@H](CO)NC(=O)[C@H](Cc1c[nH]cn1)NC(=O)[C@H](CCCNC(=N)N)NC(=O)[C@H](CC(C)C)NC(=O)[C@H](Cc1ccccc1)NC(=O)[C@H](CCC(=O)O)NC(=O)[C@H](C)NC(=O)[C@H](CC(C)C)NC(=O)[C@H](CCCNC(=N)N)NC(=O)[C@H](CCC(N)=O)NC(=O)[C@@H](NC(=O)[C@H](C)NC(=O)[C@@H]1CSSC[C@H](NC(=O)[C@H](CCCCN)NC(=O)CC[C@H](NC(=O)CCCCCCCCCCCCCCCCCCC(=O)O)C(=O)O)C(=O)N[C@@H](CC(N)=O)C(=O)N[C@@H]([C@@H](C)O)C(=O)N[C@@H](C)C(=O)N[C@@H]([C@@H](C)O)C(=O)N1)[C@@H](C)O)C(=O)N1CCC[C@H]1C(=O)N[C@@H](CO)C(=O)N1CCC[C@H]1C(=O)N[C@H](C(=O)N[C@@H](CC(N)=O)C(=O)N[C@H](C(=O)NCC(=O)N[C@@H](CO)C(=O)N[C@@H](CC(N)=O)C(=O)N[C@H](C(=O)N[C@@H](Cc1ccc(O)cc1)C(N)=O)[C@@H](C)O)C(C)C)[C@@H](C)O` [Example 37] ({C20 diacid-γGlu}-KCNTATCATQRLAEFLRHSSPNFGAIPSPTNVGSNTY-NH2; disulfide 2-7 (inferred)), in series [1], the “ThT pH 4.0 lag time (h)” value came to 15 h. Moreover, the solubility at 18 h in series [2] (setting [4]), in series [2] (setting [5]), in series [2] (setting [6]), in series [2] (setting [7]), in series [2] (setting [8]) and in series [2] (setting [9]) was no less than 200 µM in each case. Further, the solubility at 18 h in series [2] (setting [10]) and in series [2] (setting [11]) was no less than 200 µM each time. The IC50 in series [3] (Table 7) worked out at 0.514 nM. For the same compound, the “Ratio rCT/rAmylin binding” value in series [3] (setting [12]) and in series [3] (setting [13]) was 14.3 throughout.

With `CC[C@H](C)[C@H](NC(=O)[C@H](C)NC(=O)CNC(=O)[C@H](Cc1ccccc1)NC(=O)[C@H](CC(N)=O)NC(=O)[C@@H]1CCCN1C(=O)[C@H](CO)NC(=O)[C@H](CO)NC(=O)[C@H](Cc1c[nH]cn1)NC(=O)[C@H](CCCNC(=N)N)NC(=O)[C@H](CC(C)C)NC(=O)[C@H](Cc1ccccc1)NC(=O)[C@H](CC(N)=O)NC(=O)[C@H](C)NC(=O)[C@H](CC(C)C)NC(=O)[C@H](CCCNC(=N)N)NC(=O)[C@H](CCC(N)=O)NC(=O)[C@@H](NC(=O)[C@H](C)NC(=O)[C@@H]1CSSC[C@H](NC(=O)[C@@H](N)CCCCNC(=O)COCCOCCNC(=O)CC[C@H](NC(=O)CCCCCCCCCCCCCCCCCCC(=O)O)C(=O)O)C(=O)N[C@@H](CC(N)=O)C(=O)N[C@@H]([C@@H](C)O)C(=O)N[C@@H](C)C(=O)N[C@@H]([C@@H](C)O)C(=O)N1)[C@@H](C)O)C(=O)N1CCC[C@H]1C(=O)N[C@@H](CO)C(=O)N[C@@H](CO)C(=O)N[C@H](C(=O)N[C@@H](CC(N)=O)C(=O)N[C@H](C(=O)NCC(=O)N[C@@H](CO)C(=O)N[C@@H](CCCNC(=N)N)C(=O)N[C@H](C(=O)N[C@@H](Cc1ccc(O)cc1)C(N)=O)[C@@H](C)O)C(C)C)[C@@H](C)O` [Example 38], the “ThT pH 4.0 lag time (h)” value in series [1] is 27 h. Further, the solubility at 18 h in series [2] (setting [4]), in series [2] (setting [5]), in series [2] (setting [6]), in series [2] (setting [7]), in series [2] (setting [8]) and in series [2] (setting [9]) was no less than 200 µM each time. The solubility at 18 h in series [2] (setting [10]) and in series [2] (setting [11]) was no less than 200 µM in each case. Besides, in series [3] (Table 7), the IC50 was determined as 0.383 nM.

As to `CC[C@H](C)[C@H](NC(=O)[C@H](C)NC(=O)CNC(=O)[C@H](Cc1ccccc1)NC(=O)[C@H](CC(N)=O)NC(=O)[C@@H]1CCCN1C(=O)[C@H](CO)NC(=O)[C@H](CO)NC(=O)[C@H](Cc1c[nH]cn1)NC(=O)[C@H](CCCNC(=N)N)NC(=O)[C@H](CC(C)C)NC(=O)[C@H](Cc1ccccc1)NC(=O)[C@H](CC(N)=O)NC(=O)[C@H](C)NC(=O)[C@H](CC(C)C)NC(=O)[C@H](CCCNC(=N)N)NC(=O)[C@H](CCC(N)=O)NC(=O)[C@@H](NC(=O)[C@H](C)NC(=O)[C@@H]1CSSC[C@H](NC(=O)[C@H](CCCCN)NC(=O)CC[C@H](NC(=O)CCCCCCCCCCCCCCCCCCC(=O)O)C(=O)O)C(=O)N[C@@H](CC(N)=O)C(=O)N[C@@H]([C@@H](C)O)C(=O)N[C@@H](C)C(=O)N[C@@H]([C@@H](C)O)C(=O)N1)[C@@H](C)O)C(=O)N1CCC[C@H]1C(=O)N[C@@H](CO)C(=O)N[C@@H](CO)C(=O)N[C@H](C(=O)N[C@@H](CC(N)=O)C(=O)N[C@H](C(=O)NCC(=O)N[C@@H](CCCNC(=N)N)C(=O)N[C@@H](CC(N)=O)C(=O)N[C@H](C(=O)N[C@@H](Cc1ccc(O)cc1)C(N)=O)[C@@H](C)O)C(C)C)[C@@H](C)O` [Example 39] ({C20 diacid-γGlu}-KCNTATCATQRLANFLRHSSPNFGAIPSSTNVGRNTY-NH2; disulfide 2-7), in series [1], the “ThT pH 4.0 lag time (h)” value is 45 h. Moreover, the solubility at 18 h in series [2] (setting [4]), in series [2] (setting [5]), in series [2] (setting [6]), in series [2] (setting [7]), in series [2] (setting [8]) and in series [2] (setting [9]) was no less than 200 µM throughout. The solubility at 18 h in series [2] (setting [10]) and in series [2] (setting [11]) was no less than 200 µM throughout. Further, in series [3] (Table 7), the 50% inhibitory concentration (IC50) came out at 1.77 nM. The “Ratio rCT/rAmylin binding” value in series [3] (setting [12]), in series [3] (setting [13]) and in series [3] (setting [14]) was 54.5 each time.

For `CC[C@H](C)[C@H](NC(=O)[C@H](C)NC(=O)CNC(=O)[C@H](Cc1ccccc1)NC(=O)[C@H](CC(N)=O)NC(=O)[C@@H]1CCCN1C(=O)[C@H](CO)NC(=O)[C@H](CO)NC(=O)[C@H](Cc1c[nH]cn1)NC(=O)[C@H](CCCNC(=N)N)NC(=O)[C@H](CC(C)C)NC(=O)[C@H](Cc1ccccc1)NC(=O)[C@H](CC(N)=O)NC(=O)[C@H](C)NC(=O)[C@H](CC(C)C)NC(=O)[C@H](CCCNC(=N)N)NC(=O)[C@H](CCC(N)=O)NC(=O)[C@@H](NC(=O)[C@H](C)NC(=O)[C@@H]1CSSC[C@H](NC(=O)[C@H](CCCCN)NC(=O)CC[C@H](NC(=O)CCCCCCCCCCCCCCCCCCC(=O)O)C(=O)O)C(=O)N[C@@H](CC(N)=O)C(=O)N[C@@H]([C@@H](C)O)C(=O)N[C@@H](C)C(=O)N[C@@H]([C@@H](C)O)C(=O)N1)[C@@H](C)O)C(=O)N1CCC[C@H]1C(=O)N[C@@H](CO)C(=O)N[C@@H](CO)C(=O)N[C@H](C(=O)N[C@@H](CC(N)=O)C(=O)N[C@H](C(=O)NCC(=O)N[C@@H](Cc1c[nH]cn1)C(=O)N[C@@H](CC(N)=O)C(=O)N[C@H](C(=O)N[C@@H](Cc1ccc(O)cc1)C(N)=O)[C@@H](C)O)C(C)C)[C@@H](C)O` [Example 40], the “ThT pH 4.0 lag time (h)” value in series [1] is on record as 26 h. Also, the solubility at 18 h in series [2] (setting [4]), in series [2] (setting [5]), in series [2] (setting [6]), in series [2] (setting [7]), in series [2] (setting [8]) and in series [2] (setting [9]) was no less than 200 µM in each case. For the same compound, the solubility at 18 h in series [2] (setting [10]) and in series [2] (setting [11]) was no less than 200 µM throughout. Besides, the half-inhibitory concentration (IC50) in series [3] (Table 7) was determined as 1.5 nM. The “Ratio rCT/rAmylin binding” value in series [3] (setting [12]), in series [3] (setting [13]) and in series [3] (setting [14]) was 46.2 in each case.

Source of the values: US9023789B2, “Amylin analogs and pharmaceutical compositions thereof” (Novo Nordisk A/S, priority 2012, dated 2015).
